Reference: ChEMBL document CHEMBL1155947, “Discovery of a novel series of benzoic acid derivatives as potent and selective human beta3 adrenergic receptor agonists with good oral bioavailability. 3. Phenylethanolaminotetraline (PEAT) skeleton containing biphenyl or biphenyl ether moiety” (J Med Chem, 2008)
Values belong to the molecule of their own block, whether it stands above or below them.

Key:
[1] = Oral bioavailability in dog at 0.83 mg/kg; format: ADME, organism-based, Canis lupus familiaris; conditions: in vivo
[2] = Protein binding in Beagle dog serum at 32 ug/kg, iv; format: ADME, organism-based, Canis lupus familiaris; conditions: 0.032 mg/kg, read-out: PB (converted)
[3] = Oral bioavailability in rat at 0.83 mg/kg; format: ADME, organism-based; conditions: in vivo
[4] = Oral bioavailability in monkey at 0.83 mg/kg; format: ADME, organism-based, Macaca mulatta; conditions: rhesus monkey, in vivo
Canis familiaris [5] = assay: Inhibition of carbachol-induced increase of intravesical pressure in Beagle dog OAB model at 32 ug/kg,; format: functional; conditions: Canis lupus familiaris
[6] = Cmax in monkey at 1.0 mg/kg, po by cassette assay; format: ADME, organism-based, Macaca mulatta; parameters: dose 1 mg/kg, route oral; conditions: rhesus monkey, in vivo
[7] = Oral bioavailability in dog at 0.1 mg/kg by cassette assay; format: ADME, organism-based, Canis lupus familiaris; conditions: in vivo
[8] = Terminal half life in rat at 0.51 mg/kg, iv by cassette assay; format: ADME, organism-based; parameters: dose 0.51 mg/kg, route intravenous; conditions: in vivo
[9] = Terminal half life in monkey at 0.32 mg/kg, iv by cassette assay; format: ADME, organism-based, Macaca mulatta; parameters: dose 0.32 mg/kg, route intravenous; conditions: rhesus monkey, in vivo
[10] = Total clearance in dog at 0.1 mg/kg, iv by cassette assay; format: ADME, organism-based, Canis lupus familiaris; parameters: dose 0.1 mg/kg, route intravenous; conditions: in vivo
Canis familiaris [11] = assay: Ratio of Cmax for drug to Cmax for 3-[((7S)-7-{[(2R)-2-(3-Chlorophenyl)-2-hydroxyethyl]amino}-5,6,7,8-tetrahydro-2-naphthalenyl)oxy]benzoic acid hydrochloride in dog at 0.1 or 0.20 mg/kg, po by cassette dosing assay; format: ADME, organism-based, Canis lupus familiaris; parameters: dose 0.2 mg/kg, route oral; conditions: in vivo, 0.2 mg/kg
[12] = molecular target: Beta-2 adrenergic receptor (Homo sapiens, UniProt P07550); assay: Agonist activity at human beta2 adrenergic receptor expressed in CHO cells assessed as cAMP accumulation; format: functional, cell-based
[13] = Terminal half life in dog at 0.1 mg/kg, iv by cassette assay; format: ADME, organism-based, Canis lupus familiaris; parameters: dose 0.1 mg/kg, route intravenous; conditions: in vivo
Homo sapiens = species on record: Homo sapiens; assay: Ratio of EC50 for human cloned beta-1 adrenergic receptor to EC50 for human cloned beta3 adrenergic receptor
[14] = molecular target: Beta-3 adrenergic receptor (Homo sapiens, UniProt P13945); assay: Agonist activity at human cloned beta3 adrenergic receptor expressed in CHO cells assessed as cAMP accumulation; format: functional, cell-based
[15] = Selectivity for human beta3 adrenergic receptor over dog beta3 adrenergic receptor
[16] = AUC (0 to 24 hrs) in dog at 0.2 mg/kg, po by cassette assay; format: ADME, organism-based, Canis lupus familiaris; parameters: time < 24 hr, dose 0.2 mg/kg, route oral; conditions: plasma
[17] = Cmax in dog at 0.2 mg/kg, po by cassette assay; format: ADME, organism-based, Canis lupus familiaris; parameters: dose 0.2 mg/kg, route oral; conditions: in vivo
[18] = Oral bioavailability in monkey at 0.32 mg/kg by cassette assay; format: ADME, organism-based, Macaca mulatta; conditions: rhesus monkey, in vivo
[19] = AUC (0 to 24 hrs) in rat at 1.0 mg/kg, po by cassette assay; format: ADME, organism-based; parameters: time < 24 hr, dose 1 mg/kg, route oral; conditions: plasma
[20] = AUC (0 to 24 hrs) in monkey at 1.0 mg/kg, po by cassette assay; format: ADME, organism-based, Macaca mulatta; parameters: time < 24 hr, dose 1 mg/kg, route oral; conditions: rhesus monkey, plasma
[21] = Cmax in rat at 1.0 mg/kg, po by cassette assay; format: ADME, organism-based; parameters: dose 1 mg/kg, route oral; conditions: in vivo
[22] = molecular target: Beta-3 adrenergic receptor (Canis lupus familiaris, UniProt O02662); assay: Agonist activity at dog beta3 adrenergic receptor expressed in CHO cells assessed as cAMP accumulation; format: functional, cell-based
[23] = Total clearance in rat at 0.51 mg/kg, iv by cassette assay; format: ADME, organism-based; parameters: dose 0.51 mg/kg, route intravenous; conditions: in vivo
[24] = Total clearance in monkey at 0.32 mg/kg, iv by cassette assay; format: ADME, organism-based, Macaca mulatta; parameters: dose 0.32 mg/kg, route intravenous; conditions: rhesus monkey, in vivo
[25] = molecular target: Beta-1 adrenergic receptor (Homo sapiens, UniProt P08588)
Description: Agonist activity at human cloned beta-1 adrenergic receptor expressed in CHO cells assessed as cAMP accumulation

[26] = Oral bioavailability in rat at 0.51 mg/kg by cassette assay; format: ADME, organism-based; conditions: in vivo
Canis familiaris [27] = assay: Ratio of AUC for drug to AUC for 3-[((7S)-7-{[(2R)-2-(3-Chlorophenyl)-2-hydroxyethyl]amino}-5,6,7,8-tetrahydro-2-naphthalenyl)oxy]benzoic acid hydrochloride in dog at 0.1 or 0.20 mg/kg, po by cassette dosing assay; format: ADME, organism-based, Canis lupus familiaris; parameters: dose 0.2 mg/kg, route oral; conditions: in vivo, 0.2 mg/kg

Sequence of Beta-3 adrenergic receptor (Canis lupus familiaris, UniProt O02662) (O02662 whole entry): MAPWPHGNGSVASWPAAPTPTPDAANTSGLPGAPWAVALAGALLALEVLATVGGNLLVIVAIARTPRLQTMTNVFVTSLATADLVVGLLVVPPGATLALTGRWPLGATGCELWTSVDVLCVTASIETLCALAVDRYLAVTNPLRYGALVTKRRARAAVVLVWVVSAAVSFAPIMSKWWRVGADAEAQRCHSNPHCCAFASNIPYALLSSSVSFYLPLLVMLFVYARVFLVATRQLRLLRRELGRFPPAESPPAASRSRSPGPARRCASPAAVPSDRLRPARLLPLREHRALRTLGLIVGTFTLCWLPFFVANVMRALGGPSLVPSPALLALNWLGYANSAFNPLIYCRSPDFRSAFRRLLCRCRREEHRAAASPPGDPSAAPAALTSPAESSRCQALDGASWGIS
Sequence of Beta-2 adrenergic receptor (P07550 whole entry): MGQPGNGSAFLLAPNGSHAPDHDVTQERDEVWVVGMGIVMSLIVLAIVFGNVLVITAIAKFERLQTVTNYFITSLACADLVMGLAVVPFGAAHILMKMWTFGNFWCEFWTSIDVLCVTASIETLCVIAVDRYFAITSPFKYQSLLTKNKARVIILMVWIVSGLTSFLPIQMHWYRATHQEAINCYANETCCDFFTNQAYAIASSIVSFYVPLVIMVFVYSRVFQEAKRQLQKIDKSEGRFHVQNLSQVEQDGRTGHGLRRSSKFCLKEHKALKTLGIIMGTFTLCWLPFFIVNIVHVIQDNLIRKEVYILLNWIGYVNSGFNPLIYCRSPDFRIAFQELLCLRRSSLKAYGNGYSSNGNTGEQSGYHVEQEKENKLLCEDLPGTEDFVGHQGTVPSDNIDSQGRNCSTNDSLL
Sequence of Beta-1 adrenergic receptor (P08588 whole entry): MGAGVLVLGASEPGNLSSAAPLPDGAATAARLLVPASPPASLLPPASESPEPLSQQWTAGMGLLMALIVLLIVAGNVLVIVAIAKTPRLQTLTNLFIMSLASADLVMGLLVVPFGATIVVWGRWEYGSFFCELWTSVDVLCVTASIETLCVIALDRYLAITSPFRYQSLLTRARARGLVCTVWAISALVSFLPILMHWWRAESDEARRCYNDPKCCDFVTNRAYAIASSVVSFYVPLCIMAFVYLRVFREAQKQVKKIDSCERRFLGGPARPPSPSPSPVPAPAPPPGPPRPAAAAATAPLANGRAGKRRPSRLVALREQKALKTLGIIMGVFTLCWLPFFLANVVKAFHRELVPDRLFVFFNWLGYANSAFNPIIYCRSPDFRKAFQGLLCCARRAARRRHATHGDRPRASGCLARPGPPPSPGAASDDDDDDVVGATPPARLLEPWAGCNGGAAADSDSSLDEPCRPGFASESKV
Sequence of Beta-3 adrenergic receptor (Homo sapiens, UniProt P13945) (P13945 whole entry): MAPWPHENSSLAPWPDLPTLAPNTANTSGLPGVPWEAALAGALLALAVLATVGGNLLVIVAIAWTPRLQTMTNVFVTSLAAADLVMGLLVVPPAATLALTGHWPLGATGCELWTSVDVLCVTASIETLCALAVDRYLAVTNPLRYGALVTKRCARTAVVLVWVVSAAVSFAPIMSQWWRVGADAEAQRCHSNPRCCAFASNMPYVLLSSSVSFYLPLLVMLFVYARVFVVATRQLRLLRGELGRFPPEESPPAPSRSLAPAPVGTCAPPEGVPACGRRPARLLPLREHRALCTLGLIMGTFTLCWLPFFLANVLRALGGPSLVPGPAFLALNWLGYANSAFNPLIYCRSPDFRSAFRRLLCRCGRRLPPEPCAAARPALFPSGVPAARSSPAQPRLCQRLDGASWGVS

bioavailability [1]: 73%
fraction unbound [2]: 0.06
bioavailability [3]: 29%
bioavailability [4]: 35%
SMILES: CCOC(=O)COc1ccc2c(c1)C[C@@H](NC[C@H](O)c1cccc(Cl)c1)CCC2
inhibition in vivo at 0.032 mg/kg (Canis familiaris [5]): 40.8%

Cmax [6]: 0.059 µg/mL
bioavailability [7]: 76.8%
half-life [8]: 15.3 h
half-life [9]: 8.2 h
clearance [10]: 0.186 L/h/kg
fraction unbound [2]: 0.1
Ratio (Canis familiaris [11]): 0.5
EC50 [12]: > 1 µM
half-life [13]: 5.9 h
Ratio EC50 (Homo sapiens): > 277
EC50 [14]: 0.0036 µM
Selectivity ratio [15]: 12.8
AUC(0-t) at 24 h [16]: 0.86 µg·h/mL
Cmax [17]: 0.0644 µg/mL
bioavailability [18]: 28.8%
AUC(0-t) at 24 h [19]: 1.94 µg·h/mL
AUC(0-t) at 24 h [20]: 0.313 µg·h/mL
Cmax [21]: 0.164 µg/mL
EC50 [22]: 0.046 µM
clearance [23]: 0.15 L/h/kg
clearance [24]: 0.942 L/h/kg
EC50 [25]: > 1 µM
bioavailability [26]: 27.3%
Ratio AUC (Canis familiaris [27]): 0.48
SMILES: COc1ccc(Oc2ccc3c(c2)C[C@@H](NC[C@H](O)c2ccc(Cl)nc2)CC3)cc1C(=O)O
inhibition in vivo at 0.032 mg/kg (Canis familiaris [5]): 57%
